We go through ten molecules from ChEMBL document CHEMBL1201862, “PubChem BioAssay data set” (2004).

Some test systems named below: COLO 205; DU-145; ACHN; SN12C; 786-0; SK-MEL-28; U-251; SK-OV-3; SK-MEL-5; NCI-H226; HOP-62; A549; TK-10; CCRF-CEM; SF-539; K562; HL-60; SW-620; IGROV-1; A498.
Assay in all cases: inhibition of tumour cell growth, NCI panel, 48 h

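Cultured in 96-well plates, cells were exposed to test compound for 48 hours across five concentrations. The concentration for 50% growth inhibition is given as GI50.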 Active and inactive are the calls of the source. Rule as the data show it: active = GI50 up to about 1.1 µM and inactive = higher.

As to `C=C(CN(C)C)C(=O)c1ccccc1`, the GI50 with COLO 205 was 1.46 µM (inactive); with DU-145 it was 16.6 µM (inactive); in the assay with ACHN, 2.7 µM (inactive); in the assay on SN12C, 17.4 µM (inactive); in the assay on 786-0, 3.3 µM (inactive); in the assay with SK-MEL-28, 16.5 µM (inactive). In addition, the GI50 is 18.7 µM (inactive) in the assay on U-251; 21.7 µM (inactive) in the assay on SK-OV-3; 15.2 µM (inactive) in the assay on SK-MEL-5; 18.3 µM (inactive) in the assay on NCI-H226; 32.9 µM (inactive) in the assay with HOP-62; 22.5 µM (inactive) with A549. Besides, the GI50 in the assay on TK-10 was 4.49 µM (inactive); in the assay with CCRF-CEM it was 0.631 µM (active); in the assay with SF-539, 8.34 µM (inactive); in the assay with K562, 2.07 µM (inactive); with HL-60, 0.577 µM (active); in the assay with SW-620, 1.69 µM (inactive). The GI50 was 18.8 µM (inactive) with IGROV-1 and 20.7 µM (inactive) in the assay on A498.
Turning to `CCCCCCc1cc2cc(-c3cn4ccccc4n3)c(=O)oc2cc1O`, the GI50 with COLO 205 is > 100 µM (inactive); in the assay on DU-145, 5.11 µM (inactive); in the assay on ACHN, 18 µM (inactive); in the assay on SN12C, 5.35 µM (inactive); with 786-0, 2.12 µM (inactive); with SK-MEL-28, 9.14 µM (inactive). In addition, the GI50 in the assay on U-251 is 3.56 µM (inactive); with SK-OV-3, 13.6 µM (inactive); in the assay on SK-MEL-5, 8.95 µM (inactive); in the assay on NCI-H226, 19.1 µM (inactive); with HOP-62 it was 11.8 µM (inactive); with A549 it was 16.5 µM (inactive). Further, the GI50 in the assay on TK-10 was 15.5 µM (inactive); in the assay on CCRF-CEM, 19.5 µM (inactive); with SF-539, 2.76 µM (inactive); in the assay on K562, 4.61 µM (inactive); with HL-60, 30.7 µM (inactive); with SW-620, 9.93 µM (inactive). Also, the values for the GI50 with IGROV-1 and in the assay with A498 were 11.2 µM (inactive) and 20.1 µM (inactive), respectively.
Regarding `C=C(CN(C)C)C(=O)c1ccc(Oc2ccccc2)cc1`, the GI50 was 1.04 µM (active) in the assay with COLO 205; 14.5 µM (inactive) with DU-145; 1.8 µM (inactive) in the assay with ACHN; 5.37 µM (inactive) with SN12C; 2.15 µM (inactive) in the assay on 786-0; 7.66 µM (inactive) with SK-MEL-28. The GI50 was 10.3 µM (inactive) in the assay with U-251; 21.3 µM (inactive) in the assay on SK-OV-3; 7.21 µM (inactive) with SK-MEL-5; 13.6 µM (inactive) in the assay with NCI-H226; 19.7 µM (inactive) in the assay with HOP-62; 19.5 µM (inactive) in the assay with A549. Also, the GI50 was 5.86 µM (inactive) with TK-10; 0.272 µM (active) with CCRF-CEM; 3.13 µM (inactive) in the assay on SF-539; 1.26 µM (inactive) in the assay on K562; 0.695 µM (active) with HL-60; 1.31 µM (inactive) with SW-620. The GI50 is 14.9 µM (inactive) in the assay on IGROV-1 and 17.7 µM (inactive) with A498.
In the case of `COc1cc(S(=O)(=O)Nc2nc(-c3ccc(/N=C/c4cccs4)cc3)cs2)ccc1Cl`, the GI50 was > 100 µM (inactive) in the assay on COLO 205; > 100 µM (inactive) with DU-145; > 100 µM (inactive) in the assay with ACHN; 28.8 µM (inactive) in the assay with SN12C; > 100 µM (inactive) in the assay on 786-0; > 100 µM (inactive) in the assay on SK-MEL-28. Besides, the GI50 was 81.1 µM (inactive) in the assay with U-251; > 100 µM (inactive) in the assay on SK-OV-3; > 100 µM (inactive) in the assay on SK-MEL-5; > 100 µM (inactive) in the assay with NCI-H226; > 100 µM (inactive) in the assay with HOP-62; > 100 µM (inactive) in the assay on A549. Besides, the GI50 in the assay with TK-10 was > 100 µM (inactive); in the assay with CCRF-CEM, 33.7 µM (inactive); with SF-539, 34 µM (inactive); with K562 it was 33.5 µM (inactive); in the assay with HL-60, 33.9 µM (inactive); in the assay with SW-620, 35.5 µM (inactive). Besides, the GI50 in the assay on IGROV-1 is 33.7 µM (inactive); in the assay on A498, > 100 µM (inactive).
Take `COC(=O)C1=C(OC(=O)/C=C/c2ccccc2)C(C(=O)OC)[C@@]2(O)[C@@H](C(=O)OC)[C@H](C)C[C@@H]1[C@@H]2C(=O)OC` (stereo not given in full): the GI50 with COLO 205 was 28.8 µM (inactive); with DU-145, 18 µM (inactive); in the assay on ACHN, 22.8 µM (inactive); with SN12C, 13.9 µM (inactive); in the assay with 786-0, 17.1 µM (inactive); in the assay with SK-MEL-28, 28.8 µM (inactive). Also, the GI50 with U-251 was 18.8 µM (inactive); in the assay with SK-OV-3 it was 21.4 µM (inactive); in the assay with SK-MEL-5, 26.9 µM (inactive); with NCI-H226 it was 41.1 µM (inactive); in the assay on HOP-62 it was 19 µM (inactive); in the assay with A549 it was 15.3 µM (inactive). Besides, the GI50 was 34.4 µM (inactive) with TK-10; 56.5 µM (inactive) in the assay with CCRF-CEM; 19.8 µM (inactive) with SF-539; > 100 µM (inactive) in the assay on K562; 39.2 µM (inactive) in the assay with HL-60; 28.3 µM (inactive) with SW-620. In addition, the GI50 was 25 µM (inactive) in the assay with IGROV-1 and 13.3 µM (inactive) in the assay with A498.
For `C(/Cc1ccc2c(c1)OCO2)=N\N=C1NCCN1`, the GI50 in the assay with COLO 205 is > 100 µM (inactive); in the assay with DU-145, > 100 µM (inactive); in the assay with ACHN, > 100 µM (inactive); with SN12C, 84.7 µM (inactive); in the assay on 786-0, > 100 µM (inactive); in the assay with SK-MEL-28, > 100 µM (inactive). The GI50 was > 100 µM (inactive) in the assay with U-251; 48.6 µM (inactive) in the assay with SK-OV-3; 47.3 µM (inactive) in the assay on SK-MEL-5; 33.2 µM (inactive) in the assay on NCI-H226; 56.1 µM (inactive) in the assay with HOP-62; 73.8 µM (inactive) with A549. Further, the GI50 in the assay with TK-10 is 61.7 µM (inactive); in the assay on CCRF-CEM, > 100 µM (inactive); in the assay with SF-539 it was 79.3 µM (inactive); in the assay on K562, 43.2 µM (inactive); with HL-60 it was 89.1 µM (inactive); in the assay with SW-620 it was > 100 µM (inactive). In addition, the values for the GI50 with IGROV-1 and in the assay on A498 were > 100 µM (inactive) and 18.8 µM (inactive), respectively.
On to `CCCC(=O)Nc1cc(/C=C/C(=O)N2CC(CCl)c3c2cc(OC(C)=O)c2[nH]cc(C)c32)n(C)c1` (stereo not given), for which the GI50 in the assay with COLO 205 is 7.03e-05 µM (active); in the assay on DU-145, < 2.5e-05 µM (active); in the assay with ACHN, < 2.5e-05 µM (active); in the assay on SN12C, 7.18e-05 µM (active); with 786-0, < 2.5e-05 µM (active); in the assay with SK-MEL-28, 4.52e-05 µM (active). For the same molecule, the GI50 is < 2.5e-05 µM (active) in the assay on U-251; 7.05e-05 µM (active) with SK-OV-3; < 2.5e-05 µM (active) with SK-MEL-5; 4.33e-05 µM (active) with NCI-H226; 4.63e-05 µM (active) in the assay with HOP-62; 8.19e-05 µM (active) with A549. Further, the GI50 with TK-10 is 0.000363 µM (active); in the assay with CCRF-CEM, < 2.5e-05 µM (active); in the assay on SF-539, < 2.5e-05 µM (active); in the assay with K562 it was 3.06e-05 µM (active); in the assay on HL-60, < 2.5e-05 µM (active); with SW-620, 2.96e-05 µM (active). Moreover, the GI50 in the assay on IGROV-1 was 3.76e-05 µM (active); in the assay on A498, 0.000116 µM (active).
Take `CCN(CC)CCC(=O)c1ccc(Cl)c(Cl)c1`: the GI50 in the assay with COLO 205 was 27.2 µM (inactive); with DU-145, 67.1 µM (inactive); with ACHN, 76.9 µM (inactive); in the assay with SN12C, 39.3 µM (inactive); in the assay on 786-0, 17.5 µM (inactive); in the assay with SK-MEL-28, 16.6 µM (inactive). In addition, the GI50 with U-251 is 36.6 µM (inactive); in the assay with SK-OV-3, > 100 µM (inactive); in the assay on SK-MEL-5, 20.1 µM (inactive); in the assay on NCI-H226 it was > 100 µM (inactive); in the assay with HOP-62 it was > 100 µM (inactive); in the assay with A549 it was > 100 µM (inactive). In addition, the GI50 was > 10 µM (inactive) in the assay with TK-10; 17.6 µM (inactive) in the assay with CCRF-CEM; > 10 µM (inactive) with SF-539; 24.8 µM (inactive) with K562; 32.3 µM (inactive) with HL-60; 19.7 µM (inactive) in the assay on SW-620. Besides, the GI50 in the assay with IGROV-1 was 39.5 µM (inactive); in the assay with A498, 18.5 µM (inactive).
With `CN(Cc1ccccc1)Cn1ccnc1`, the GI50 in the assay with COLO 205 is 33.5 µM (inactive); in the assay with DU-145 it was > 100 µM (inactive); in the assay on ACHN, > 100 µM (inactive); with SN12C, 95.1 µM (inactive); in the assay on 786-0, 72.9 µM (inactive); in the assay on SK-MEL-28 it was 34.1 µM (inactive). The GI50 was > 71 µM (inactive) with U-251; > 100 µM (inactive) in the assay on SK-OV-3; 37.9 µM (inactive) with SK-MEL-5; > 100 µM (inactive) with NCI-H226; > 100 µM (inactive) in the assay on HOP-62; > 100 µM (inactive) with A549. Also, the GI50 was > 100 µM (inactive) in the assay with TK-10; 32.2 µM (inactive) with CCRF-CEM; > 100 µM (inactive) in the assay on SF-539; 34.7 µM (inactive) in the assay on K562; > 38.5 µM (inactive) in the assay with HL-60; > 100 µM (inactive) in the assay on SW-620. Further, the values for the GI50 with IGROV-1 and in the assay on A498 were 36.2 µM (inactive) and > 91.6 µM (inactive), respectively.
Regarding `COc1ccc(CC2c3cc(Oc4cc(CC5c6cc(OC)c(OC)cc6CCN5C)ccc4O)c(OC)cc3CCN2C)cc1` (stereo not given), the GI50 was 7.06 µM (inactive) in the assay on COLO 205; 1.3 µM (inactive) in the assay with DU-145; 7.01 µM (inactive) in the assay with ACHN; 8 µM (inactive) in the assay on SN12C; 3.02 µM (inactive) in the assay with 786-0; 7.8 µM (inactive) in the assay on SK-MEL-28. Further, the GI50 in the assay with U-251 was 5.74 µM (inactive); in the assay on SK-OV-3 it was 9.29 µM (inactive); in the assay on SK-MEL-5, 7.6 µM (inactive); in the assay with NCI-H226, 10.2 µM (inactive); in the assay on HOP-62, 7.93 µM (inactive); in the assay on A549, 6.73 µM (inactive). Further, the GI50 with TK-10 was 3.87 µM (inactive); in the assay on CCRF-CEM, 0.519 µM (active); in the assay on SF-539, 8.63 µM (inactive); in the assay with K562, 1.36 µM (inactive); in the assay with HL-60, 7.78 µM (inactive); in the assay with SW-620 it was 1.66 µM (inactive). In addition, the GI50 was 8.59 µM (inactive) in the assay on IGROV-1 and 7.96 µM (inactive) with A498.
